Experimental findings from patent US20240261297A1, “ANTI-CDK INHIBITORS FOR CANCER TREATMENT” (St. John's Cancer Institute, priority 2021, published 2024) are described below.

Data set [1] is described as follows: Snapshot plasma pharmacokinetics in mice. The class given is in vivo. Here is the method:
Evaluation of pharmacokinetic (PK) parameters and efficacy of I-3 in a xenograft model was carried out in mice. […] Briefly, mice were treated with 5 mg/kg of 1-3 or merioline-3. Plasma was then collected at different time points and measured for drug concentration. […] PK parameters of I-3 was also compared to a panel of CDK inhibitors (Table 13). […] Likewise, Ribociclib has a better Cmax than I-3, but it is primarily a CDK4/6 inhibitor.

The target of a further data set is CDK5/p35 (Homo sapiens, UniProt Q00535). Put plainly: Radioisotope-based protein kinase assay. The format is biochemical. The following applies: Table 2. As to the method:
(§1) A series of test compounds were selected for initial screening against CDK isoforms. Protein kinase assays were performed with gold standard radioisotope-based assay formats to measuring enzyme activity remaining in presence and absence of inhibitor.
The activity of compound I-3 was compared to that of a panel of CDKs and their respective binding partners (Tables 2 and 3).

The target in another data set is CDK1/cyclin B (Homo sapiens, UniProt P06493). Put plainly: Radioisotope-based protein kinase assay. The class given is biochemical. The following applies: 10 μM ATP, 3-fold dilution from 10 μM. Here is the method: as §1
Another data set deals with CDK4/cyclin D1 (Homo sapiens, UniProt P11802). Nature of the data set: Radioisotope-based protein kinase assay. The format is biochemical. The following applies: 10 μM ATP, 3-fold dilution from 10 μM. As to the method: as §1
The target in another data set is CDK1/cyclin A (Homo sapiens, UniProt P06493). Put plainly: Radioisotope-based protein kinase assay. The format is biochemical. The following applies: 10 μM ATP, 3-fold dilution from 10 μM. Here is the method:
as §1

The target of a further data set is CDK6/cyclin D1 (Homo sapiens, UniProt Q00534). Nature of the data set: Radioisotope-based protein kinase assay. The format is biochemical. The following applies: 10 μM ATP, 3-fold dilution from 10 μM. As to the method:
as §1

For a further data set, the target named is CDK9/cyclin T1 (Homo sapiens, UniProt P50750). Nature of the data set: Radioisotope-based protein kinase assay. The class given is biochemical. The following applies: 10 μM ATP, 3-fold dilution from 10 μM. As to the method:
as §1

Another data set addresses CDK2/cyclin E (Homo sapiens, UniProt P24941). Put plainly: Radioisotope-based protein kinase assay. The format is biochemical. The following applies: 10 μM ATP, 3-fold dilution from 10 μM. Here is the method: as §1
The target of a further data set is CDK2/cyclin A (Homo sapiens, UniProt P24941). Put plainly: Radioisotope-based protein kinase assay. The class given is biochemical. The following applies: 10 μM ATP, 3-fold dilution from 10 μM. Here is the method:
as §1

A further data set has as its target CKD9/Cyclin H (Homo sapiens, UniProt P50750). Put plainly: Biochemical profile against CDKs and binding partners (Table 3). As to the method:
as §1

For another data set, the target named is CDK7/cyclin H (Homo sapiens, UniProt P50613). Nature of the data set: Radioisotope-based protein kinase assay. The format is biochemical. The following applies: 10 μM ATP, 3-fold dilution from 10 μM. Here is the method: as §1
Another data set concerns PLC/PRF/5 cells. Put plainly: Cell viability of HCC cells by CellTiter Glo assay. The following applies: 72 hours. The format is cell-based. Here is the method: FIG. 5 is a graph showing cell viability of hepatocellular carcinoma (HCC) cell lines treated with I-3 for 72 hours, assessed by CellTiter Glo assay, with the control level of cells considered 100%.
I-3 was also tested for efficacy on hepatocellular carcinoma (HCC) cell lines. Cell viability was measured by CellTiter Glo assay (FIG. 5 and Table 8).
Background: Cellular ATP, detected with luciferase, serves as a proxy for viable cell number.

Data set [2] deals with caspase 3/7 in MDA-MB-468 cells. Nature of the data set: Caspase Glo 3/7 activity assay in MDA-MB-468 cells. The following applies: 24 hours. The class given is cell-based. Here is the method:
Further anti-proliferative effect of 1-3 was evaluated in the TNBC cell line MDA-MB-468 based on biomarker (CDK2) inhibition. […] The mechanistic cell cycle block is aligned with biomarker. In addition, Caspase Glo 3/7 activation was tested to confirm the sub-G1 (apoptotic) arrest in cell cycle.

Data set [3] deals with caspase 3/7 in PLC/PRF/5 cells. Put plainly: Caspase Glo 3/7 activity assay in PLC/PRF/5 cells. The format is cell-based.
The test system of a further data set is MDA-MB-468. Nature of the data set: Cell viability in breast cancer cell lines. The class given is cell-based. The following applies: MDA-MB-468, 72 hours, Table 6, read-out: Cell viability by CellTiter Glo IC50. An excerpt:
(§2) Tables 5 and 6 show assessment of in vitro efficacy of I-3 in a panel of breast cancer cell lines.

In a further data set the test system is MCF-10A. Put plainly: Cell viability in breast cell lines. The class given is cell-based. The following applies: MCF-10A, 72 hours, Table 6, read-out: Cell viability by CellTiter Glo IC50.
Source text: as §2

The mark [4] stands for this setting: PO 5 mg/kg, cassette dosing, plasma.

Read-outs that look alike come from different tables or passages of the source.

Chain of CDK1/cyclin B (P06493 whole entry): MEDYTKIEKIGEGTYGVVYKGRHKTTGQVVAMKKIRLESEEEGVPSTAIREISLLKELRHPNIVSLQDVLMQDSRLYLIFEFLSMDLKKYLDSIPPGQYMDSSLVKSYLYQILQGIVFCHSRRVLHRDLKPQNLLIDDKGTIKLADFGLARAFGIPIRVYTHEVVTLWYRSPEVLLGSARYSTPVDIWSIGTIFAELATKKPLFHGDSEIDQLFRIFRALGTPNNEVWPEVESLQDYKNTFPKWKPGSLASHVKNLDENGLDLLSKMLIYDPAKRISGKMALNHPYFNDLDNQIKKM
Chain of CDK1/cyclin B (P14635 whole entry partner): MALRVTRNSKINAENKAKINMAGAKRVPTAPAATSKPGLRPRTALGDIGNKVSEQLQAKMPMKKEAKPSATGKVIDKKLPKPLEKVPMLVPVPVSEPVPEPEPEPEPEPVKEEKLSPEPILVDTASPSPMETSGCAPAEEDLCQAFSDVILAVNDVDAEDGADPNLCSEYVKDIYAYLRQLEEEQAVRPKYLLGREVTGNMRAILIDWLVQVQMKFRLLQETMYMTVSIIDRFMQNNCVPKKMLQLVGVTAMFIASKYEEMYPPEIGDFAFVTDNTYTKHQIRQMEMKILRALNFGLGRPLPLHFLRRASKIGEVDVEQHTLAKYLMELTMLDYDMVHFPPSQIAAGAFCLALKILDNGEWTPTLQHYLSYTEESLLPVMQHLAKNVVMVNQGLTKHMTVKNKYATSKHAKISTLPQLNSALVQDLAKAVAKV
Chain of CDK9/cyclin T1 (P50750 whole entry): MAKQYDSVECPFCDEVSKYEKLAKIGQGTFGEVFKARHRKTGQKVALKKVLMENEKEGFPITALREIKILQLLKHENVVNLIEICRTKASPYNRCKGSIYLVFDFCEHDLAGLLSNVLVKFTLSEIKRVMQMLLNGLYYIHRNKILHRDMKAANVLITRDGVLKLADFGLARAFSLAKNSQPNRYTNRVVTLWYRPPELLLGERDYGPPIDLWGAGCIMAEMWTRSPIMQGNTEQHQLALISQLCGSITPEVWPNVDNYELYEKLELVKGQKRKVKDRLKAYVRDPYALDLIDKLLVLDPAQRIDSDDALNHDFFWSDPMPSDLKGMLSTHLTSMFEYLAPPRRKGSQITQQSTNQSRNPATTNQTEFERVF
Chain of CDK9/cyclin T1 (O60563 whole entry partner): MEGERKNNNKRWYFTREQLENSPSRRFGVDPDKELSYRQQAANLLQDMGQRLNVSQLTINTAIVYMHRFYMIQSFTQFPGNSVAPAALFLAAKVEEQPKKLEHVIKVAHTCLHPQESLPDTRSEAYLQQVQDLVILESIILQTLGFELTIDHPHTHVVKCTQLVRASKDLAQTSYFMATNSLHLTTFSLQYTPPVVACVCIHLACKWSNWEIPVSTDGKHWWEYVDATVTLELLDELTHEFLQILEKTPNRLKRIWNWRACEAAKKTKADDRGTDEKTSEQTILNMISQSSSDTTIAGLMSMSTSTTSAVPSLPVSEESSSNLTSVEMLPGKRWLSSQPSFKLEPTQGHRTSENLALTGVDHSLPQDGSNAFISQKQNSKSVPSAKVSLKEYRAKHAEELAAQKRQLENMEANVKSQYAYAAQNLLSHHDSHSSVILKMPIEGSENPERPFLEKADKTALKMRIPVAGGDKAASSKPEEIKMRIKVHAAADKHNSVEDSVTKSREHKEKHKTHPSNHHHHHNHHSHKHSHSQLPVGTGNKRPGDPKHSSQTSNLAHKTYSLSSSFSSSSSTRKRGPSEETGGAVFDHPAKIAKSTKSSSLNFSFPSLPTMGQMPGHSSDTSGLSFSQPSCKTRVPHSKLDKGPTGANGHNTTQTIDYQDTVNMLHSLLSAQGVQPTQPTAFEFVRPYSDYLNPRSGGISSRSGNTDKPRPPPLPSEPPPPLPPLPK
Chain of CDK6/cyclin D1 (Q00534 whole entry): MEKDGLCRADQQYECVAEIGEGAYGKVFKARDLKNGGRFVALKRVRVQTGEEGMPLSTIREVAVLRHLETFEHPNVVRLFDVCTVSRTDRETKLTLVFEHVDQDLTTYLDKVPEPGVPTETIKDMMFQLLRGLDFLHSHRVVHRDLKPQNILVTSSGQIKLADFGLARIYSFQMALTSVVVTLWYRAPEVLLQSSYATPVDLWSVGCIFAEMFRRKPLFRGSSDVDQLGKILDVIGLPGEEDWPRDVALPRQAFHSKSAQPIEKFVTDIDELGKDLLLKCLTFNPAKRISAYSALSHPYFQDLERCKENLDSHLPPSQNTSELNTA
Chain of CDK6/cyclin D1 (P24385 whole entry partner): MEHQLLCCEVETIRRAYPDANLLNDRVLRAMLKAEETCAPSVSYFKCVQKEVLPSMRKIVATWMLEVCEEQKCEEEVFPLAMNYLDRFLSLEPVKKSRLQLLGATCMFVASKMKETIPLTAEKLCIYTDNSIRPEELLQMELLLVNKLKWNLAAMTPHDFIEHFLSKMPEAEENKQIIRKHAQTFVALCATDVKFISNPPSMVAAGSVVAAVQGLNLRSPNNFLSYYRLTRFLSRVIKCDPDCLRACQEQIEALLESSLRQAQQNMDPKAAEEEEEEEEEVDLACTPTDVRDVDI
Chain of CDK4/cyclin D1 (P11802 whole entry): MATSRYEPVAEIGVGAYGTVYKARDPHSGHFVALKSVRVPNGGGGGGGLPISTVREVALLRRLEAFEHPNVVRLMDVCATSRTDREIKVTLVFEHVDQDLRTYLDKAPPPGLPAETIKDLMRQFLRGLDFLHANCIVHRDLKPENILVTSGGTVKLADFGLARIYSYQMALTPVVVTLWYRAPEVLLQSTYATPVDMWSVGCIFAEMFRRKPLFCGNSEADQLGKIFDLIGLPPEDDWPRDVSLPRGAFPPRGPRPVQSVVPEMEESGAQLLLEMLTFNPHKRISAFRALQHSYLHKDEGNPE
Chain of CDK4/cyclin D1 (P24385 whole entry partner): as the sequence (P24385 whole entry partner) above
Chain of CKD9/Cyclin H (P50750 whole entry): as the sequence (P50750 whole entry) above
Chain of CDK5/p35 (Q00535 whole entry, canonical isoform): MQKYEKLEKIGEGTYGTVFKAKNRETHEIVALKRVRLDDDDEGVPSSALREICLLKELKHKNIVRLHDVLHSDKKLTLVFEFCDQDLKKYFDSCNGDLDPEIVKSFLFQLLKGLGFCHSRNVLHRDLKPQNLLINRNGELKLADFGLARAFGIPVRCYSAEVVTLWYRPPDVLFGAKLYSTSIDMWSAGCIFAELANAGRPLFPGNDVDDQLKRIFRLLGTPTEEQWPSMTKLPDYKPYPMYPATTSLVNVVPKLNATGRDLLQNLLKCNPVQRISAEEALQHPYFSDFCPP
Chain of CDK5/p35 (Q15078 whole entry partner, canonical isoform): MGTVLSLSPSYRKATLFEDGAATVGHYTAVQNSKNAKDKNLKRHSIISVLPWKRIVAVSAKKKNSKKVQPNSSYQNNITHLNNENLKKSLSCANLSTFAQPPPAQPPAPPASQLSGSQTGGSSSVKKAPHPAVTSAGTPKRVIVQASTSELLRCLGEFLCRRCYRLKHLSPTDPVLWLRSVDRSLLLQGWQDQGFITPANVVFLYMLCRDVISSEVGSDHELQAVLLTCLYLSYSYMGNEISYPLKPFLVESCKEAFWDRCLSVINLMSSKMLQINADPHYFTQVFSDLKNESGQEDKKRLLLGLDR
Chain of CDK7/cyclin H (P50613 whole entry): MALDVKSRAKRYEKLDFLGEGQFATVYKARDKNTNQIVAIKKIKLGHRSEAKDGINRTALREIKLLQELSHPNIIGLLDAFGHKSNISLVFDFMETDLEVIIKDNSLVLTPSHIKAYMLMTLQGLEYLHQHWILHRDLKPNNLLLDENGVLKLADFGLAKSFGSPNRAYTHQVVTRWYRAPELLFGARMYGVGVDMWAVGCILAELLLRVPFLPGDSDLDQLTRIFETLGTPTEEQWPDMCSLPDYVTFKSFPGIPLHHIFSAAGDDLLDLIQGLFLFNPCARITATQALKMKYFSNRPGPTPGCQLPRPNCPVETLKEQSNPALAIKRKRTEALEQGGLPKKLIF
Chain of CDK7/cyclin H (P51946 whole entry partner): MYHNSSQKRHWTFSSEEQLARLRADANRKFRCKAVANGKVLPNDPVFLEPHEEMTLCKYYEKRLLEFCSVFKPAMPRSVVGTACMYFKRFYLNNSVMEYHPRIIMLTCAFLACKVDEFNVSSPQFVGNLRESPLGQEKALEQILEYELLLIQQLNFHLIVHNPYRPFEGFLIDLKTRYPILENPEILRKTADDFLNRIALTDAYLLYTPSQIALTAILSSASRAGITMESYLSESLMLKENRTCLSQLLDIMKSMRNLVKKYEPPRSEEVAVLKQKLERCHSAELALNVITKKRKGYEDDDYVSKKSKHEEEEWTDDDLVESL
Chain of CDK7/cyclin H (P51948 whole entry partner): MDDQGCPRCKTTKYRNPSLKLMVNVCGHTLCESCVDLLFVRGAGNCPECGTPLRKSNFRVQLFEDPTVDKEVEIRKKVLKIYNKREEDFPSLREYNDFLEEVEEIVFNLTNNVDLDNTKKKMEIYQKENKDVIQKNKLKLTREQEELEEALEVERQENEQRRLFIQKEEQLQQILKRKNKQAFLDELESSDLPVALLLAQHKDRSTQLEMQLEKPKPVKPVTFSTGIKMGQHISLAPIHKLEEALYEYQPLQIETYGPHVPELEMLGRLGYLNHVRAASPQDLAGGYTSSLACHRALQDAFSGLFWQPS

As usually defined, the Cmax is the maximum level reached in the sampled fluid or tissue. What is called Tmax is the time at which the peak concentration occurs. In general, IC50 refers to the point on the concentration scale where inhibition reaches its midpoint. As for Merioline-3, the Cmax is reported as 178 ng/mL in [1] (setting [4]); 5560 ng/mL in data set [1] (mice, IV 5 mg/kg, plasma); 483 ng/mL in [1] (mice, PO 5 mg/kg, plasma). Moreover, the AUCinf is 83,600 min*ng/mL in data set [1] (mice, IV 5 mg/kg, plasma) and 4340 ng·min/mL in data set [1] (mice, PO 5 mg/kg, plasma). The molecule further had a T1/2 in data set [1] (mice, IV 5 mg/kg, plasma) of 0.124 h. Further, the Tmax in data set [1] (mice, IV 5 mg/kg, plasma) was determined as 0.0833 h; in data set [1] (mice, PO 5 mg/kg, plasma), 1 h. In addition, the IC50 on CDK5/p35 was 3 nM; against CDK1/cyclin B it was 7 nM; against CDK4/cyclin D1, 182 nM; against CDK1/cyclin A, 5 nM; at CDK6/cyclin D1 it was 130 nM; against CDK9/cyclin T1 it was 2 nM. Besides, the IC50 was 2 nM at CDK2/cyclin E, 3 nM against CDK2/cyclin A and 2 nM at CKD9/Cyclin H.

Regarding `Nc1nccc(-c2c[nH]c3nccc(Oc4cccc(C(F)(F)F)c4)c23)n1` [I-5, 4-(4-(3-(trifluoromethyl)phenoxy)-1H-pyrrolo[2,3-b]pyridin-3-yl)pyrimidin-2-amine], the 50% inhibitory concentration (IC50) against CDK9/cyclin T1 amounted to 16 nM; against CDK2/cyclin E it was 27 nM; against CDK7/cyclin H, 43 nM.

In the case of `Nc1nccc(-c2c[nH]c3nccc(Oc4ccc(F)cc4)c23)n1` [I-6, 4-(4-(4-fluorophenoxy)-1H-pyrrolo[2,3-b]pyridin-3-yl)pyrimidin-2-amine], the IC50 came out at 4 nM against CDK1/cyclin A, 196 nM against CDK6/cyclin D1, 3 nM on CDK9/cyclin T1 and 5 nM on CDK2/cyclin A.

On to `Nc1nccc(-c2c[nH]c3nccc(Oc4cccc(Cl)c4)c23)n1` [I-2, 4-(4-(3-chlorophenoxy)-1H-pyrrolo[2,3-b]pyridin-3-yl)pyrimidin-2-amine], for which the concentration for half-maximal inhibition (IC50) is 16 nM against CDK1/cyclin B; 875 nM on CDK4/cyclin D1; 11 nM against CDK1/cyclin A; 819 nM on CDK6/cyclin D1; 8 nM on CDK2/cyclin E; 9 nM against CDK2/cyclin A.

Consider `CNC(=O)c1cc(Oc2ccc(NC(=O)Nc3ccc(Cl)c(C(F)(F)F)c3)cc2)ccn1` [Sorafenib], for which the IC50 with PLC/PRF/5 cells (Homo sapiens) came out at 6300 nM.

In turn, `C[C@@]1(O)CCC[C@H]1n1c(=O)c(C(F)F)cc2cnc(NC3CCN(S(C)(=O)=O)CC3)nc21` [PF-06873600, reference compound] displayed a Cmax in data set [1] (setting [4]) of 196 ng/mL. This molecule displayed a T1/2 in data set [1] (setting [4]) of 2.1 h. For the same molecule, the “Caspase 3/7 activation” value in data set [2] was “no caspase 3/7 activation”. The IC50 was 5660 nM in data set [2]; 3480 nM with PLC/PRF/5 cells; 3560 nM in data set [3]; 65 nM in the data set on MDA-MB-468; 660 nM in the data set with MCF-10A; 43 nM at CKD9/Cyclin H.

As to `CCN1CCN(Cc2ccc(Nc3ncc(F)c(-c4cc(F)c5nc(C)n(C(C)C)c5c4)n3)nc2)CC1` [Abemaciclib], in [1] (mouse, in vivo), the Tmax turned out to be 5.5 h. The molecule further returned an AUC(0-inf) in [1] (mouse, in vivo, AUCinf) of 613 ng·h/mL. The molecule also displayed a Cmax in data set [1] (mouse, in vivo, Cmax) of 107 ng/mL.

Regarding `Nc1nccc(-c2c[nH]c3nccc(Oc4cc(F)cc(F)c4)c23)n1` [I-4, 4-(4-(3,5-difluorophenoxy)-1H-pyrrolo[2,3-b]pyridin-3-yl)pyrimidin-2-amine], the values for the IC50 against CDK1/cyclin B, on CDK4/cyclin D1 and on CDK2/cyclin E were 7 nM, 462 nM and 2 nM, respectively.

Take `Nc1nccc(-c2c[nH]c3nccc(Oc4ccccc4)c23)n1` [I-1, 4-(4-phenoxy-1H-pyrrolo[2,3-b]pyridin-3-yl)pyrimidin-2-amine]: the IC50 against CDK1/cyclin B turned out to be 4 nM; at CDK4/cyclin D1, 259 nM; against CDK1/cyclin A, 3 nM; against CDK6/cyclin D1 it was 138 nM; against CDK2/cyclin E, 2 nM; against CDK2/cyclin A it was 3 nM.

For `CN(C)C(=O)c1cc2cnc(Nc3ccc(N4CCNCC4)cn3)nc2n1C1CCCC1` [Ribociclib], the time to peak (Tmax) in data set [1] (mouse, in vivo) was found to be 5.7 h. In data set [1] (mouse, in vivo, AUCinf), this molecule came in with an AUC(0-inf) of 2780 ng·h/mL. The highest concentration (Cmax) in data set [1] (mouse, in vivo, Cmax) came to 303 ng/mL.

For `CC[C@H](Nc1nc(NCc2cnc(C)cc2C)c2ncn(C(C)C)c2n1)[C@@H](C)O` [CYC065, reference compound], the IC50 with MDA-MB-468 (Homo sapiens) came out at 380 nM; with MCF-10A (Homo sapiens), 400 nM; against CDK1/cyclin B it was 578 nM; at CDK4/cyclin D1, 21 nM; on CDK2/cyclin E, 5 nM.

With `CC(=O)c1c(C)c2cnc(Nc3ccc(N4CCNCC4)cn3)nc2n(C2CCCC2)c1=O` [Palbociclib], the AUC(0-inf) in data set [1] (mouse, plasma, oral, 5 mg/kg, in vivo PK comparison of CDK inhibitors, Table 13, read-out: AUCinf) is 641 ng·h/mL. For the same molecule, in data set [1] (mouse, plasma, oral, 5 mg/kg, in vivo PK comparison of CDK inhibitors, Table 13, read-out: Cmax), the Cmax worked out at 196 ng/mL. Moreover, the Tmax in data set [1] (mouse, plasma, oral, 5 mg/kg, in vivo PK comparison of CDK inhibitors, Table 13, read-out: Tmax) turned out to be 2.1 h.

With `CNC(=O)c1nn(C)c2c1C(C)(C)Cc1cnc(Nc3ccc(N4CCN(C)CC4)cc3)nc1-2` [Milciclib], the Tmax in data set [1] (mouse, in vivo) is 3.5 h. Besides, the AUC(0-inf) in [1] (mouse, in vivo, AUCinf) turned out to be 2980 ng·h/mL. The molecule further showed a Cmax in [1] (mouse, in vivo, Cmax) of 537 ng/mL. Moreover, the IC50 on CDK1/cyclin B amounted to 398 nM; at CDK2/cyclin E, 363 nM.
